Assay results taken from patent publication US7666677B2, “Production of stilbenes in plant hairy root cultures” (priority 2006, dated 2010).
“And” between values parts separate entries of the source, which are not always exact repeats. Identical values can stand only once. Values belong to the molecule of their own block, whether it stands above or below them.

Legend:
[1] = test system: hairy root cultures of peanut cv. Andru II; test: Elicitation of peanut hairy root cultures, TLC/HPTLC of ethyl acetate extracts of the medium; type: cell-based, Arachis hypogaea; conditions: for fluorescent compounds induced in culture medium (TLC, UV 365 nm): all cv. Andru II hairy root lines tested, 12-day cultures, 600 μM copper sulfate or 10.2 mM sodium acetate; for fluorescent compounds induced in culture medium (TLC, UV 365 nm) / fluorescent products induced in culture medium (TLC): 24 hours; for fluorescent products induced in culture medium (TLC): line 2, 12-day culture, sodium acetate 10.2 mM, chitosan 10 mg/L, copper sulfate 600 μM, laminarin 1 mg/ml, cellulase 1 or 10 μg/ml; for color change of the root tissue and medium: lines 2, 3, 5 and 6 of cv. Andru II, elicitors applied 24 hours
Experimental: Establishment of hairy root cultures. Seeds of peanuts (Arachis hypogaea) cvs. Andru II and Hull (kindly provided by Dr. Daniel Gorbet, University of Florida) were surface sterilized as follows. Seeds were presoaked for 2 minutes in sterile water containing 0.003% Ivory™ detergent; immersed for 15 minutes in sterilization solution (50% Clorox™, 0.003% Ivory™ detergent) and rinsed in sterile water. To minimize Chlorox™ damage to the embryo, the test was aseptically removed and seeds were further rinsed in two changes of sterile water over a 15 minute period. Disinfected seeds were placed individually on plates containing B5 medium to allow emergence of the radicle and to screen for viable healthy seedlings. Germinated seedlings were transferred to Magenta™ boxes containing B5 medium and allowed to grow in continuous light at 28° C. for 15 to 21 days. Explants used for hairy root production were harvested following expansion of two true leaves.
Cotyledon, hypocotyl, leaf blade, stem and petiole explants were evaluated. Whole, intact plantlets were also tested. […] Intact seedlings and isolated explants were then evaluated for response to Agrobacterium infection. Three strains of Agrobacterium were tested: A. rhizogenes ATCC 15834, A. rhizogenes R1000 and A. tumefaciens EHA105 containing pRYG (containing rolA, rolB and rolC genes, Komarnytsky et al., 2004) plasmid. The latter plasmid was kindly provided by Dr. Ilya Raskin (Rutgers University, New Jersey) and mobilized into A. tumefaciens by freeze-thaw method (Holsters et al., 1978). Intact seedlings were inoculated with agrobacteria at the stem, petiole, or cotyledonary node. All other isolated explants were inoculated via epidermal incisions as described before (Medina-Bolivar et al., 2003; Medina-Bolivar and Cramer, 2004). Inoculated intact seedlings and explants were maintained in B5 medium plates under constant light at 28° C. Hairy roots developed at the inoculation site were harvested and transferred to B5 medium plates containing 600 mg/l cefotaxime, and maintained at 28° C. under continuous darkness. Roots were subcultured twice in this medium prior to transfer to antibiotic-free medium. Liquid hairy root cultures were established by inoculating ten 1-cm root tips into 250 ml flasks containing 50 ml of B5 medium. Roots were subcultured every 2 weeks and maintained on an orbital shaker at 90 rpm, 28° C. and continuous darkness.
(§1) Elicitation of hairy root cultures. […] All elicitors were dissolved in water and filter sterilized, except for chitosan which was dissolved in 1 M acetic acid. Following elicitation, all media was collected and frozen at −20° C. All root tissue was collected, fresh weight recorded and roots then rapidly frozen in liquid nitrogen prior to storage at −80° C. Controls included hairy root cultures incubated 24 hours with equivalent volumes of water or acetic acid as well as non-elicited media samples collected from the 12-day hairy root cultures prior to initiating the elicitation procedure. […] Media and root tissue were collected, processed and stored as outlined above.
(§2) Extraction of resveratrol from culture medium. Media samples were thawed (50 ml) and partitioned with 30 ml ethyl acetate in a separatory funnel. The organic phase was recovered and dried to completeness under nitrogen stream using a RapidVap N2 evaporation system (Labconco) at 40° C. and 40% rotor speed. These dried samples were resuspended in 50 μl of ethyl acetate for further analysis.
Qualitative TLC analysis. Aliquots of the extracts and pure, authentic standards of trans-resveratrol (Sigma Co, St. Louis, Mo.), polydatin—same chemical as piceid—(ChromaDex, Santa Ana, Calif.), pterostilbene (Sigma) and piceatannol (Sigma) were spotted on a 20×20 cm silica gel 60 CF254 TLC plates (Merck) or a 10×10 silica gel 60 CF254 HPTLC plates (Merck).

[2] = Solubility of resveratrol in organic solvents; type: physicochemical
From the text: Qualitative analyses of elicited peanut hairy root cultures. In an effort to rapidly assess the various hairy root lines for resveratrol production and secretion into the culture medium, we adapted a thin layer chromatographic method (TLC) that leverages the fluorescent nature of resveratrol at defined excitation wavelengths (Nepote et al., 2004). In a preliminary experiment, the culture medium was lyophilized to completeness and the dried medium was resuspended in methanol. This extract produced a very viscous solution which was difficult to resolve by TLC. In addition, the high content of carbohydrates in this sample appeared to bind the phenolic compounds (i.e. resveratrol). In an effort to overcome these issues, we optimized the purification of resveratrol in the culture medium by determining the solubility of resveratrol in various organic solvents. […] Initial analyses of the ethyl acetate extracts of hairy root media were compared by TLC to pure authentic references standards of trans-resveratrol and piceid. […] Andru II hairy root lines tested. The strongest fluorescent chemical was detected in the medium of sodium acetate-elicited hairy roots and generated an Rf of 0.83 corresponding to that of authentic trans-resveratrol. […]

[3] = test system: hairy root cultures of peanut, line 2
Experimental: as §1, §2
Quantitative analysis of resveratrol and pterostilbene by GC-MS. Dried medium or root tissue extracts (0.1 mg) were derivatized with 500 μL of a mixture of bis (trimethylsilyl)trifluoroacetamide:dimethyl formamide (1:1), heated at 70° C. for 40 min. After cooling to room temperature, samples were analyzed by gas chromatography/mass spectrometry (GC-MS) on a JEOL GCMate II system (JEOL USA, Inc., USA). […] The GC capillary column used was DB-5 (0.25 mm i.d., 0.25 […], 30 m length; Agilent Technologies, USA). The carrier gas was ultra high purity helium (nexAir, USA), 1 mL/min flow rate. The inlet (splitless), GC interface, and ion chamber temperatures were 250° C., 250° C., and 230° C., respectively. The injection volume was 2 μL.
Quantitative analysis of resveratrol and pterostilbene by GC-MS. […] Cis- and trans-resveratrol were monitored for m/z 444 (and 429, 207, 147 as qualifier ions). Cis- and trans-pterostilbene were monitored for m/z 328 (and 313, 296, 156 as qualifier ions). Quantitation was performed using external standards of a commercial sample of trans-resveratrol (Sigma) and a synthetic sample of trans-pterostilbene (synthesized from methylation of resveratrol). The cis isomers were obtained by UV-irradiation (λ 306 nm) of an ethanolic solution the trans isomers (1 mg/mL) for 24 hours.
Laboratory recovery of stilbenes. […] Therefore we have calculated resveratrol recoveries based on the dry weight (DW) of the ethyl acetate extract of the culture media.

[4] = test system: hairy roots of muscadine grape; conditions: 10.2 mM sodium acetate, 24 hours, medium extract
Experimental: PCR analyses of hairy roots of muscadine grape (Vitis rotundifolia) cvs. Roots were analyzed for the presence of rol C and aux 2 genes. Hairy roots were cultured in B5 medium. […] Analysis was done under UV light (365 nm).

[5] = test system: peanut hairy roots derived from the Hull cultivar; conditions: 10.2 mM sodium acetate, 24 hours, medium extract
Experimental: Using the materials and methods outlined above, resveratrol and resveratrol derivatives were elicited in the peanut hairy roots derived from the Hull cultivar. […] Control roots were not elicited. Elicited hairy root of peanut cv. Andru II (line pRYG-J) and cv. Hull s were cultured in B5 medium. […] Analysis was done under UV light (254 and 365 nm).

[6] = test system: hairy root cultures of N. benthamiana
From the text: Seeds of Nicotiana benthamiana were surface sterilized and germinated on MS semi-solid medium. Axillary nodes were harvested from the axenic seedlings and used to establish plantlets. The latter were then micropropagated in MS medium and leaves from these plantlets were used as explants for Agrobacterium rhizogenes inoculations. Leaves were harvested from 2-3 week old plantlets and placed on B5 medium. The leaves were inoculated in the midrib with A. rhizogenes ATCC 15834. Two to 3 weeks after inoculation hairy roots initiated at the inoculation site. The roots were then transferred to B5 medium with cefotaxime to eliminate agrobacteria. After several subcultures in this medium, the roots were transferred to antibiotic-free B5 medium. Confirmation of transformation with A. rhizogenes was done by PCR. […]
To test for elicitation of stilbenes (pinosylvin, resveratrol and their derivatives), hairy root cultures of N. benthamiana lines 3NB, 4NB, 5NB and 6NB were grown for either 2 or 3 weeks as described above. […] Stilbenes were detected with a coupled diode away and fluorescence (excitation 330 nm; emission 374 nm) detector.
Further analyses were conducted by reverse phase HPLC. […] Stilbenes were detected with coupled diode array and fluorescence (excitation 330 nm; emission 374 nm) detectors. […] These compounds were further analyzed by HPLC-ESI-mass spectrometry.

[7] = line 2, 15-day culture, 48 hours after elicitation

Molecule: O=S(=O)([O-])[O-].[Cu+2] [copper sulfate]
fluorescent compounds induced in culture medium (TLC, UV 365 nm) [1]: induced production of blue fluorescent compounds
fluorescent products induced in culture medium (TLC) [1]: induced a fluorescent chemical of Rf 0.73
color change of the root tissue and medium [1]: induced the browning on the tissue and of the medium

solubility of resveratrol in ethyl acetate [2]: good solubility
Molecule: Oc1ccc(/C=C/c2cc(O)cc(O)c2)cc1 [resveratrol, trans-3,4′,5-trihydroxystilbene]

Molecule: CC(=O)[O-].[Na+] [sodium acetate]
fluorescent compounds induced in culture medium (TLC, UV 365 nm) [1]: induced production of blue fluorescent compounds
fluorescent products induced in culture medium (TLC) [1]: induced two products
presence of resveratrol in culture medium, time course [1, 7]: decreased
pterostilbene levels in culture medium, time course [1, 7]: increased
trans-resveratrol and pterostilbene levels in culture medium, time course ([1]; line 2, 15-day culture, 72 hours post elicitation): decreased
sodium acetate concentration with the most effective response (dose response, HPTLC) ([1]; line 2, 24 hours, 0 to 51 mM tested): about 10 mM
color change of the root tissue and medium [1]: did not affect the color of the roots
increase of resveratrol above non-elicited culture extracts ([3]; culture medium extracts): ~60 fold
cis-resveratrol levels in elicited cultures, root tissue (average) ([3]; elicited cultures): 10 ng/mg root tissue extract
trans-resveratrol remaining in the root tissue ([3]; elicited cultures): 0.2-1.1 μg/mg extract DW
trans-Resveratrol, Medium ([3]; elicited cultures, ethyl acetate extract of medium, mean of two determinations): 97992 ng per mg extract and 85282 ng per mg extract and 50339 ng per mg extract
cis-Resveratrol, Root tissue ([3]; elicited cultures, extract of root tissue, mean of two determinations): 10 ng per mg extract
production rate of trans-resveratrol per gram DW of root tissue ([3]; estimating 6 mg medium ethyl acetate extract per gram root tissue DW): 300 to 588 µg
share of total trans-resveratrol secreted into the culture medium ([3]; sodium acetate elicitation): approximately 99%
elicitation of resveratrol and derivatives (HPTLC) [4]: achieved
production of resveratrol and derivatives (HPTLC) [5]: induced the production of resveratrol and derivatives
induced compound by reverse phase HPLC ([6]; 24 and 48 hours after elicitation): induced production of a major fluorescence compound
production and secretion of stilbene-like fluorescent compounds (HPTLC) ([6]; lines 3NB, 4NB, 5NB, 6NB, 10.2 mM sodium acetate, 24 or 48 hours): induced production and secretion of compounds with fluorescent characteristics of stilbene compounds

Molecule: cellulase
fluorescent products induced in culture medium (TLC) [1]: no fluorescent chemicals were detected

Molecule: chitosan
fluorescent products induced in culture medium (TLC) [1]: induced the two products as observed for sodium acetate elicitation

Molecule: laminarin
fluorescent products induced in culture medium (TLC) [1]: induced production of a blue fluorescent chemical with an Rf 0.78
